From patent US20230138393A1, “LINKING AMINO ACID SEQUENCES, MANUFACTURING METHOD THEREOF, AND USE THEREOF” (priority 2020, published 2023)

Legend:
[1] = system: DLD-1 cells; details: literature; cited from earlier work
[2] = system: DLD-1 cells; assay: Cell penetration assay of FITC-labelled Axin analogues (confocal imaging); format: cell-based; details: 10 μM
Method: Images were analyzed with NIH ImageJ software.
Cell Penetration Assay: DLD-1 cells were seeded on 35 mm optical dishes at 3e5 per well and were incubated overnight at 37° C./5% CO2. […] Cells were imaged in buffer mimicking the physiological conditions in the cytoplasm (20 mM HEPES, 110 mM KOAc, 5 mM NaOAc, 2 mM MgOAc, 1 mM EGTA, pH 7.3).

## CC[C@H](C)[C@@H]1NC(=O)[C@@](C)(NC(=O)[C@H](CCC(N)=O)NC(=O)[C@@H]2CCCN2C(=O)[C@H](Cc2c[nH]c3ccccc23)NC(=O)[C@H](CCCNC(=N)N)NC(=O)COCCOCCNC(=S)Nc2ccc3c(c2)C(=O)OC32c3ccc(O)cc3Oc3cc(O)ccc32)CCCC=CCCC[C@@](C)(C(=O)N[C@@H](Cc2c[nH]cn2)C(=O)N[C@H](C(=O)N[C@@H](CCCNC(=N)N)C(=O)N[C@@H](CCCNC(=N)N)C(=O)N[C@H](C(=O)N[C@@H](Cc2c[nH]c3ccccc23)C(=O)N[C@@H](CCCNC(=N)N)C(N)=O)C(C)C)C(C)C)NC(=O)[C@H](CC(=O)O)NC(=O)[C@H](CC(C)C)NC1=O [Peptide 51, reference compound]
[1]
  reported cell permeability to DLD-1 cells: limited cell permeability
[2]
  cellular uptake by confocal fluorescence microscopy (in words): much weaker fluorescence
